Source: patent US5266594A, “Inhibitors of nitric oxide synthase and use thereof to prevent glutamate neurotoxicity” (priority 1992, dated 1993)

Tests used:
[1] = target: brain NOS (cerebellar NOS) (Rattus norvegicus, UniProt P29476); test: inhibition of NOS activity, conversion of [^3 H]arginine to [^3 H]citrulline, cerebellar homogenates/supernatants in vitro
Source text: Inhibitors of NOS are compounds which compete for the substrate binding site of NOS or other sites on the enzyme, and include both reversible and irreversible inhibitors. The present invention contemplates the use of any physiologically acceptable inhibitor which inhibits NOS activity. The effectiveness of a compound, and its relative potency as an NOS inhibitor, can be tested and routinely determined by measuring inhibition of NOS activity by monitoring the conversion of arginine to citrulline by NOS in, for example, cerebellar homogenates. A reduction in citrulline formation indicates inhibitory activity of the compound. The percent reduction in citrulline formation, compared to the amount of citrulline formed in the absence of the compound being tested, indicates the potency of the compound as an NOS inhibitor.
Rat cerebella were homogenized in 10 vols. (w/v) […] Tris (pH 7.4), 2 mM EDTA. Homogenates were centrifuged at 10,000×g for 15 minutes at 4° C. Supernatant preparations were used in the enzyme assays. Cerebellar tissue was dialyzed (Spectra/Por, 10,000 MWCO, EDTA-treated cellulose dialysis tubing) against 20 mM Tris (pH 7.4), 2 mM EDTA (300 ml×2) for 24 hours at 4° C.
Cerebellar homogenates were incubated with arginine derivatives for one hour at 4° C., and dialyzed overnight. Aliquots (25 μg protein) were assayed for NOS activity before and after dialysis.
NOS activity was measured by monitoring the conversion of [^3 H]arginine to [^3 H]citrulline as described by Bredt and Snyder (Proc. Natl. Acad. Sci USA (1990) 87682-685). Briefly, enzyme assays contained 25 μl of soluble tissue, 50 μl of […] [^3 H]arginine and 1 mM NADPH, and 25 μl of 3 mM CaCl2. After a 15 minute incubation at room temperature, the assays were terminated with 3 ml of 20 mM Hepes (pH 5.5) with 2 mM EDTA, and were applied to 0.5 ml columns of Dowex AG50WX8 (Na^+ form). [^3 H]citrulline was quantified by liquid scintillation spectroscopy of the 3 ml flow-through.
Accordingly, the effects of 2, 4 and 24 hours of preincubations of cerebellar supernatants (FIG. 2A) and activated macrophage homogenates (FIG. 2B) with NO2 Arg were examined. The preincubation was conducted at 4° C. since NOS is unstable at higher temperature for long periods of time. Enzymatic incubation was conducted for only 5 minutes to minimize any reaction of the inhibitor with the enzyme in the course of the incubation procedure.
Cerebellar supernatants were made as described in Example 1.

[2] = test system: cGMP formation; test: cGMP formation in cortical cell cultures (RIA); format: cell-based, rat; settings: 300 μM NMDA (plus 10 μM glycine), 1 minute; 100 μM NO2 Arg, 1 mM L-Arg, 100 units of SOD, 500 μM Hb
Method: Primary dissociated cell cultures were prepared from fetal rats (13-to 14-day gestation for cortex and caudate-putamen cultures and 19- to 20-day gestation for hippocampal cultures). […] Dissociated cells were plated at a density of 3-4×10^5 cells per well in polyornithine-coated 15-mm multiwell plates. After 4 days the cells were treated with 10 μg of 5-fluoro-2'-deoxyuridine to prevent proliferations of noneuronal cells. Cells were maintained in MEM/5% horse serum/2 mM glutamine in 8% CO2 /humidified atmosphere at 37° C. The medium was changed twice weekly. Mature neurons (3-4 weeks) were used.
For determination of cGMP the cells were washed three times with CSS. […] After ether extraction, cGMP levels were determined by RIA.
Data are means ±SEM (n=6-8).
Data are means ±SEM (n=8-12).

[3] = test system: brain or macrophage enzyme (NOS); test: NOS inhibition and brain/macrophage selectivity of arginine, nitroarginine and guanidinoalkanoic acid analogs; format: biochemical
[4] = test system: brain-endothelial and macrophage NOS; settings: cited from earlier work

Sequence of brain NOS (cerebellar NOS) (P29476 whole entry): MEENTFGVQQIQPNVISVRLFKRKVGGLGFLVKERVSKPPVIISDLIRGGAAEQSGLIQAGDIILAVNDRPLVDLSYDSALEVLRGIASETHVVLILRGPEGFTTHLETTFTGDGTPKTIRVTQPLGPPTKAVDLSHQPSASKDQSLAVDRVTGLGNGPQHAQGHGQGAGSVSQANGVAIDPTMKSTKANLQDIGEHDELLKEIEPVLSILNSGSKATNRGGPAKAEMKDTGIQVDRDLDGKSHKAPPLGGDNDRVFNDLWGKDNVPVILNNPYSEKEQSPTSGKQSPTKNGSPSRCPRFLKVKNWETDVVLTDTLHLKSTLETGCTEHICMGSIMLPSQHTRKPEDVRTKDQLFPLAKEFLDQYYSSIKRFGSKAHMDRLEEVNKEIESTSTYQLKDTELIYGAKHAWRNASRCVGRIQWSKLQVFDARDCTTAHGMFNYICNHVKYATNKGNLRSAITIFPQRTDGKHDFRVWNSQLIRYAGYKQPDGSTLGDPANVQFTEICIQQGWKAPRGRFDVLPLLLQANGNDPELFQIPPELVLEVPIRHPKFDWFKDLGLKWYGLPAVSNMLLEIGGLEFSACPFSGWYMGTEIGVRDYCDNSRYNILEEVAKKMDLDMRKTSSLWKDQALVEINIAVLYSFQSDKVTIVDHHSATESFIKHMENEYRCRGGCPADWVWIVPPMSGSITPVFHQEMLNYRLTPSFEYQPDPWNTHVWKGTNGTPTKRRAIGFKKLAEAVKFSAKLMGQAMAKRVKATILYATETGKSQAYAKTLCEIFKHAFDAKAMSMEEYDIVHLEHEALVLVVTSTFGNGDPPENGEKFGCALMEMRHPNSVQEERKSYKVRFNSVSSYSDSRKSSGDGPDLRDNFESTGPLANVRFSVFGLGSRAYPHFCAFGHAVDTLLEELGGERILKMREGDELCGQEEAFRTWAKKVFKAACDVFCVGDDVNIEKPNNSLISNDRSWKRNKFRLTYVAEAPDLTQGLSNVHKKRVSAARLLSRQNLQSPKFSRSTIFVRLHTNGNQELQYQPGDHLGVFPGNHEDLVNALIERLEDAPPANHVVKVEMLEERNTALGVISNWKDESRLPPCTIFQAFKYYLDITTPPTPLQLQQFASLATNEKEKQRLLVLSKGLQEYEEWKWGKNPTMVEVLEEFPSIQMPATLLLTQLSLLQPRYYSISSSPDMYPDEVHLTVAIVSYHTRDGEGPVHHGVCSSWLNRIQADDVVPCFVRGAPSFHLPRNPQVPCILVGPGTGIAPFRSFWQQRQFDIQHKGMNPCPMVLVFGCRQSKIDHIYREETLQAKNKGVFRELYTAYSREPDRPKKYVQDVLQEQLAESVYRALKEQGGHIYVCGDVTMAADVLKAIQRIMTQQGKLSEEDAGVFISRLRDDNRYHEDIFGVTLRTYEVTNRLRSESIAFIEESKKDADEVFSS

## N=C(NCCC[C@H](N)C(=O)O)N[N+](=O)[O-] [NO2 Arg, L-N^ω -nitroarginine]
[1]; 2 hour preincubation at 4° C., FIG. 2A
  effect of preincubation on potency of inhibition: increases the potency of inhibition
[1]; FIG. 1, before and after dialysis
  nature of inhibition of cerebellar NOS in vitro: irreversible inhibition
[1]; cerebellar supernatant preparations, FIG. 1
  relative potency as inhibitor of NOS activity: more potent inhibitor of NOS activity than MeArg
[1]; preincubation for 24 hours at 4° C.
  augmentation of potency by preincubation: about 15 times
[2]
  effect on NMDA stimulation of cGMP formation: antagonized
[3]
  inhibition potency among nitroarginine analogs: most potent inhibitor
[4]; Gross et al. (1990)
  inhibition of brain-endothelial versus macrophage enzyme: weaker inhibitor of the macrophage enzyme
[4]; incubations at 37° C. for about 1/2 hour, 30 min
  greater potency in inhibiting brain-endothelial than macrophage NOS: 10-300 fold
